In PubChem BioAssay AID2060886 (Molecular Pharmacology Branch, DTP, NCI, 2025):
Several values for one entry are separate records, joined by “and”; a condition that tells them apart may be missing. Equal entries are not always repeated.

System: 653999-131-R-J2-PDC complex spheroids, growth inhibition
Assay: Anticancer human tumor 653999-131-R-J2-PDC patient-derived lung adenocarcinoma cell line growth inhibition [RAS]
Conditions: for viability, T/C: stronger effect = lower value
Text: RAS pathway inhibitors in Combinations in Complex Spheroids
A high-throughput screen of multi-cell type tumor spheroids was designed to identify active combinations of RAS pathway inhibitors and targeted small molecules. Complex spheroids include a stromal component modeled by human endothelial cells (HUVEC) and fibroblasts modeled by human mesenchymal stem cells (MSCs). The concentration ranges selected for each drug and investigational agent were based upon clinically achievable concentrations if the clinical Cmax of the agent was known.
Compounds. The drugs and investigational agents: abemaciclib (NSC768073), cobimetinib (NSC768068), divarasib (GDC6063, NSC841802), docetaxel (NSC628503), GDC-1971 (RLY-1971, NSC841576), gemcitabine (NSC613327), inavolisib (NSC800729), ipatasertib (NSC767898), KB-0742 (NSC834161), MRTX-1133 (NSC836407), osimertinib (NSC779217), RMC-4630 (NSC839698), RMC-6236 (NSC851965), RMC-6291 (NSC852671), Ro-3306 (NSC812927), sapanisertib (NSC764658), SN-38 (NSC673596), staurosporine (NSC755774), SY5609 (NSC837396), and tovorafenib (DAY101, NSC766906), were obtained from the National Cancer Institute (NCI) Developmental Therapeutics Program Chemical Repository. The FDA-approved anticancer drug set is available from the NCI Developmental Therapeutics Program. […] The stock solutions were prepared in dimethyl sulfoxide (DMSO, Sigma-Aldrich, St. Louis, MO, cat. D2650) at 800-fold the tested concentration and stored at -70 degrees C prior to their use. All drugs and investigational agents were tested over a range starting from a high concentration at or near the clinical Cmax and decreasing in half-log increments. If the clinical Cmax for an agent had not been determined, the highest concentration tested was 10 microM.
Cell Culture. All cells were maintained in an incubator at 37 degrees C and 5% CO2 with 95% humidity. The PDC lines were cultured according to standard operating procedures established by the NCI PDMR. All PDCs were thawed and cultured in Matrigel-coated flasks prepared with a working solution of 1X Ham's F-12 nutrient mix, without supplementation (Invitrogen, Waltham, MA, cat. 11765054), 100 U/mL penicillin-streptomycin (Invitrogen, cat. 15140122), and 2.5% Matrigel (Corning Inc., Corning, NY, cat. 354248) for the first three passages. The 362531-283-R-J2-PDC and 782815-120-R-J1-PDC lines were cultured in 6C/Colon 1B media, which includes advanced DMEM/F-12 (Thermo Fisher Scientific, cat. 12634028), 10 mM HEPES (Thermo Fisher Scientific, cat. 15630080), 1X GlutaMAX supplement (Thermo Fisher Scientific, cat. 35050061), 0.1 mg/mL primocin (InvivoGen, San Diego, CA, cat. ant-pm-2), 10% defined fetal bovine serum, heat inactivated (HyClone Laboratories Inc., Logan, UT, cat. SH30070.03HI), 50% L-WRN conditioned media (ATCC, cat. CRL-3276), 1.25 mM N-Acetyl-L-cysteine (Sigma-Aldrich, cat. A9165), 10 mM nicotinamide (Sigma-Aldrich, cat. N0636), 1X B-27 supplement (Thermo Fisher Scientific, cat. 17504044), 1X N-2 supplement (Thermo Fisher Scientific, cat. 17502048), 50 ng/mL human EGF (Thermo Fisher Scientific, cat. PHG0311), and 10 microM Y-27632 dihydrochloride (Tocris Bioscience, cat. 1254). The K12877-001-R-J1-PDC line was cultured in 6I media, which includes all 6C/Colon 1B media plus 10 ng/mL human FGF-10 (PeproTech, cat. 100-26), 1 ng/mL human FGF-2 (PeproTech, cat. 100-18B), 1 µM prostaglandin E2 (Tocris Bioscience, cat. 2296), […] hydrocortisone (Sigma-Aldrich, cat. H4001), and […] bovine insulin (Sigma-Aldrich, cat. I6634). The K86415-001-R-J1-PDC line was cultured in 6D media, which includes all 6C/Colon 1B media components minus the L-WRN conditioned media. The 485176-168-R4-J1-PDC was cultured in PANC media, which includes all 6C/Colon 1B media plus 100 ng/mL human FGF-10 (PeproTech, cat. 100-26), 500 nM SB-431542 (Selleckchem, cat. S1067), and 10 nM gastrin (Tocris Bioscience, cat. 3006). […]

[1] = curve of first compound, second compound 0.00316 µM
[2] = curve of first compound, second compound 0.01 µM
[3] = curve of first compound, second compound 0.0316 µM
[4] = curve of first compound, second compound 0.1 µM
[5] = curve of first compound, second compound 0.316 µM
[6] = curve of first compound, second compound 1 µM
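Note: spheroids exposed to the agents for seven days before the readout.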

With `C[C@@H](NC(=O)c1ncnc(N)c1Cl)c1ncc(C(=O)Nc2cc(C(F)(F)F)c(Cl)cn2)s1` + C=CC(=O)N1CCN(c2nc(OCC3CCCN3C)nc3c(F)c(-c4nc(N)cc(C)c4C(F)(F)F)c(Cl)cc23)C(C)C1 the IC50 [1] was over 10 µM, the IC50 [2] was over 10 µM and the IC50 [3] was over 10 µM. For the same compound, the IC50 [4] was over 10 µM, the IC50 [5] was over 10 µM and the IC50 [6] was over 10 µM. It also gave a viability, T/C (second compound 0.00316 µM, first compound 0.0316 µM) of 120%, a viability, T/C (second compound 0.00316 µM, first compound 0.1 µM) of 85% and a viability, T/C (second compound 0.00316 µM, first compound 0.316 µM) of 101%. For the same compound, the viability, T/C (second compound 0.00316 µM, first compound 1 µM) was 81%, the viability, T/C (second compound 0.00316 µM, first compound 3.16 µM) was 88.5% and the viability, T/C (second compound 0.00316 µM, first compound 10 µM) was 81%. It also gave a viability, T/C (second compound 0.01 µM, first compound 0.0316 µM) of 127%, a viability, T/C (second compound 0.01 µM, first compound 0.1 µM) of 108% and a viability, T/C (second compound 0.01 µM, first compound 0.316 µM) of 89%. It also gave a viability, T/C (second compound 0.01 µM, first compound 1 µM) of 93.5%, a viability, T/C (second compound 0.01 µM, first compound 3.16 µM) of 98% and a viability, T/C (second compound 0.01 µM, first compound 10 µM) of 71.3%. The viability, T/C (second compound 0.0316 µM, first compound 0.0316 µM) was 116%, the viability, T/C (second compound 0.0316 µM, first compound 0.1 µM) was 90.3% and the viability, T/C (second compound 0.0316 µM, first compound 0.316 µM) was 93.5%. It also gave a viability, T/C (second compound 0.0316 µM, first compound 1 µM) of 89.9%, a viability, T/C (second compound 0.0316 µM, first compound 3.16 µM) of 84.3% and a viability, T/C (second compound 0.0316 µM, first compound 10 µM) of 73.2%. For the same compound, the viability, T/C (second compound 0.1 µM, first compound 0.0316 µM) was 105%, the viability, T/C (second compound 0.1 µM, first compound 0.1 µM) was 95.2% and the viability, T/C (second compound 0.1 µM, first compound 0.316 µM) was 101%. The viability, T/C (second compound 0.1 µM, first compound 1 µM) was 94.3%, the viability, T/C (second compound 0.1 µM, first compound 3.16 µM) was 89.5% and the viability, T/C (second compound 0.1 µM, first compound 10 µM) was 84.2%. The viability, T/C (second compound 0.316 µM, first compound 0.0316 µM) was 107%, the viability, T/C (second compound 0.316 µM, first compound 0.1 µM) was 96.1% and the viability, T/C (second compound 0.316 µM, first compound 0.316 µM) was 110%. The viability, T/C (second compound 0.316 µM, first compound 1 µM) was 97.6%, the viability, T/C (second compound 0.316 µM, first compound 3.16 µM) was 85.1% and the viability, T/C (second compound 0.316 µM, first compound 10 µM) was 86.1%. It also gave a viability, T/C (second compound 1 µM, first compound 0.0316 µM) of 90.9%, a viability, T/C (second compound 1 µM, first compound 0.1 µM) of 96.7% and a viability, T/C (second compound 1 µM, first compound 0.316 µM) of 104%. For the same compound, the viability, T/C (second compound 1 µM, first compound 1 µM) was 99.5%, the viability, T/C (second compound 1 µM, first compound 3.16 µM) was 87.5% and the viability, T/C (second compound 1 µM, first compound 10 µM) was 82.2%.
`CC1(C)CCC(Nc2ncc(C(F)(F)F)c(-c3c[nH]c4c(P(C)(C)=O)c(C#N)ccc34)n2)CN1` (stereo unspecified) + C=CC(=O)N1CCN(c2nc(OCC3CCCN3C)nc3c(F)c(-c4nc(N)cc(C)c4C(F)(F)F)c(Cl)cc23)C(C)C1 showed an IC50 [1] of over 0.3 µM, an IC50 [2] of over 0.3 µM and an IC50 [3] of over 0.3 µM. For the same compound, the IC50 [4] was over 0.3 µM, the IC50 [5] was over 0.3 µM and the IC50 [6] was over 0.3 µM. For the same compound, the viability, T/C (second compound 0.00316 µM, first compound 0.000949 µM) was 84%, the viability, T/C (second compound 0.00316 µM, first compound 0.003 µM) was 70.5% and the viability, T/C (second compound 0.00316 µM, first compound 0.00949 µM) was 73.5%. The viability, T/C (second compound 0.00316 µM, first compound 0.03 µM) was 60.1%, the viability, T/C (second compound 0.00316 µM, first compound 0.0949 µM) was 70% and the viability, T/C (second compound 0.00316 µM, first compound 0.3 µM) was 71.4%. For the same compound, the viability, T/C (second compound 0.01 µM, first compound 0.000949 µM) was 88.8%, the viability, T/C (second compound 0.01 µM, first compound 0.003 µM) was 74% and the viability, T/C (second compound 0.01 µM, first compound 0.00949 µM) was 70.1%. It also gave a viability, T/C (second compound 0.01 µM, first compound 0.03 µM) of 60.9%, a viability, T/C (second compound 0.01 µM, first compound 0.0949 µM) of 68% and a viability, T/C (second compound 0.01 µM, first compound 0.3 µM) of 64.6%. The viability, T/C (second compound 0.0316 µM, first compound 0.000949 µM) was 89.8%, the viability, T/C (second compound 0.0316 µM, first compound 0.003 µM) was 66.1% and the viability, T/C (second compound 0.0316 µM, first compound 0.00949 µM) was 59.9%. For the same compound, the viability, T/C (second compound 0.0316 µM, first compound 0.03 µM) was 64.2%, the viability, T/C (second compound 0.0316 µM, first compound 0.0949 µM) was 65.2% and the viability, T/C (second compound 0.0316 µM, first compound 0.3 µM) was 64.5%. For the same compound, the viability, T/C (second compound 0.1 µM, first compound 0.000949 µM) was 77.5%, the viability, T/C (second compound 0.1 µM, first compound 0.003 µM) was 68.7% and the viability, T/C (second compound 0.1 µM, first compound 0.00949 µM) was 61%. The viability, T/C (second compound 0.1 µM, first compound 0.03 µM) was 58.5%, the viability, T/C (second compound 0.1 µM, first compound 0.0949 µM) was 60.1% and the viability, T/C (second compound 0.1 µM, first compound 0.3 µM) was 69.8%. It also gave a viability, T/C (second compound 0.316 µM, first compound 0.000949 µM) of 101%, a viability, T/C (second compound 0.316 µM, first compound 0.003 µM) of 72.3% and a viability, T/C (second compound 0.316 µM, first compound 0.00949 µM) of 69.8%. It also gave a viability, T/C (second compound 0.316 µM, first compound 0.03 µM) of 77.1%, a viability, T/C (second compound 0.316 µM, first compound 0.0949 µM) of 77.5% and a viability, T/C (second compound 0.316 µM, first compound 0.3 µM) of 69.5%. It also gave a viability, T/C (second compound 1 µM, first compound 0.000949 µM) of 78.9%, a viability, T/C (second compound 1 µM, first compound 0.003 µM) of 69.9% and a viability, T/C (second compound 1 µM, first compound 0.00949 µM) of 74%. The viability, T/C (second compound 1 µM, first compound 0.03 µM) was 64%, the viability, T/C (second compound 1 µM, first compound 0.0949 µM) was 65.9% and the viability, T/C (second compound 1 µM, first compound 0.3 µM) was 63.7%.
For `Nc1ccn(C2OC(CO)C(O)C2(F)F)c(=O)n1` (stereo unspecified), the viability, T/C (compound 0.00316 µM) was 90.2% [middle of 4 runs], the viability, T/C (compound 0.01 µM) was 76.4% [middle of 4 runs] and the viability, T/C (compound 0.0316 µM) was 62.9% [middle of 4 runs]. For the same compound, the viability, T/C (compound 0.1 µM) was 51.2% [middle of 4 runs], the viability, T/C (compound 0.316 µM) was 43.1% [middle of 4 runs] and the viability, T/C (compound 1 µM) was 34.1% and 30.3% (2×) and 33.9%. The IC50 (curve of compound) was 99.5 nM [middle of 4 runs].
